From US20060052297A1, “Method of up-regulating tumor antigen expression using thymalfasin” (priority 2002, published 2006)

Key:
[1] = Safety of thymalfasin in humans; type: in vivo, human
Experimental: (§1) TLP expression-enhancing amounts of thymalfasin peptide can be determined by routine dose-titration experiments. Up-regulation of TLP can be achieved in vivo by administration of between 2 μg/kg and 6 mg/kg body weight of thymalfasin, preferably between 20 μg/kg and 200 μg/kg.

[2] = Safety of thymalfasin in rats; type: in vivo, rat
Experimental: as §1

[3] = subcutaneously injected; Rost, et al., 1998; cited from earlier work

Substance: Ac-SDAAVDTSSEITTKDLKEKKEVVEEAEN-OH [thymalfasin]
- dose found to be safe [1]: ≤ 16 mg/dose/day
- dose found to be safe [2]: ≤ 6 mg/kg/day
- plasma half-life [3]: about 2 hours
